The supplement of paper PMC11451515

Test system: SEM cells
Experiment: cell viability relative to DMSO control; higher = less cytotoxic
Settings: 48 h
Outline: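 Three leukemia lines were tested: NOMO1 and SEM at 500 cells/well and P12-Ichikawa at 1000 cells/well. Each was adapted for at least four passages in each medium and seeded in 5 μl in 1536-well plates, and library compounds in DMSO were pin-dosed from 47 μM to 0.79 nM in 11 threefold steps. After 48 h at 37°C, CellTiter-Glo One luminescence was read. Viability is a percentage relative to DMSO wells on each plate, with cell-free wells as background.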

[1] = HPLM + 10% dialyzed FBS, 0.000781 µM
[2] = HPLM + 10% dialyzed FBS, 0.00234 µM
[3] = HPLM + 10% dialyzed FBS, 0.00702 µM
[4] = HPLM + 10% dialyzed FBS, 0.0211 µM
[5] = HPLM + 10% dialyzed FBS, 0.0632 µM
[6] = HPLM + 10% dialyzed FBS, 0.19 µM
[7] = HPLM + 10% dialyzed FBS, 0.569 µM
[8] = HPLM + 10% dialyzed FBS, 1.71 µM
[9] = HPLM + 10% dialyzed FBS, 5.12 µM
[10] = HPLM + 10% dialyzed FBS, 15.4 µM
[11] = HPLM + 10% dialyzed FBS, 46.1 µM
[12] = RPMI 5 mM glucose + 10% FBS, 0.000781 µM
[13] = RPMI 5 mM glucose + 10% FBS, 0.00234 µM
[14] = RPMI 5 mM glucose + 10% FBS, 0.00702 µM
[15] = RPMI 5 mM glucose + 10% FBS, 0.0211 µM
[16] = RPMI 5 mM glucose + 10% FBS, 0.0632 µM
[17] = RPMI 5 mM glucose + 10% FBS, 0.19 µM
[18] = RPMI 5 mM glucose + 10% FBS, 0.569 µM
[19] = RPMI 5 mM glucose + 10% FBS, 1.71 µM
[20] = RPMI 5 mM glucose + 10% FBS, 5.12 µM
[21] = RPMI 5 mM glucose + 10% FBS, 15.4 µM
[22] = RPMI 5 mM glucose + 10% FBS, 46.1 µM
[23] = RPMI 5 mM glucose + 10% dialyzed FBS, 0.000781 µM
[24] = RPMI 5 mM glucose + 10% dialyzed FBS, 0.00234 µM
[25] = RPMI 5 mM glucose + 10% dialyzed FBS, 0.00702 µM
[26] = RPMI 5 mM glucose + 10% dialyzed FBS, 0.0211 µM
[27] = RPMI 5 mM glucose + 10% dialyzed FBS, 0.0632 µM
[28] = RPMI 5 mM glucose + 10% dialyzed FBS, 0.19 µM
[29] = RPMI 5 mM glucose + 10% dialyzed FBS, 0.569 µM
[30] = RPMI 5 mM glucose + 10% dialyzed FBS, 1.71 µM
[31] = RPMI 5 mM glucose + 10% dialyzed FBS, 5.12 µM
[32] = RPMI 5 mM glucose + 10% dialyzed FBS, 15.4 µM
[33] = RPMI 5 mM glucose + 10% dialyzed FBS, 46.1 µM

SMILES	cell viability [1] [%]	cell viability [2] [%]	cell viability [3] [%]	cell viability [4] [%]	cell viability [5] [%]	cell viability [6] [%]	cell viability [7] [%]	cell viability [8] [%]	cell viability [9] [%]	cell viability [10] [%]	cell viability [11] [%]	cell viability [12] [%]	cell viability [13] [%]	cell viability [14] [%]	cell viability [15] [%]	cell viability [16] [%]	cell viability [17] [%]	cell viability [18] [%]	cell viability [19] [%]	cell viability [20] [%]	cell viability [21] [%]	cell viability [22] [%]	cell viability [23] [%]	cell viability [24] [%]	cell viability [25] [%]	cell viability [26] [%]	cell viability [27] [%]	cell viability [28] [%]	cell viability [29] [%]	cell viability [30] [%]	cell viability [31] [%]	cell viability [32] [%]	cell viability [33] [%]
OC1=CC2=C(C(=C1)O)C(=O)\C=C(/O2)C3=CC=CC=C3	89.7	92.5	93	107	94.5	112	94.4	115	85	61.9	8.24	88.2	103	106	94.2	105	101	92	104	77.2	35.8	4.9	85.8	96.6	95.3	91.5	99.9	97.7	97.3	111	94.5	59.6	11.9
CC/1=C(/N2[C@H](SC1)[C@H](NC(=O)[C@H](N)\C3=C\C\C=C/C3)C2=O)C(O)=O	79.3	87.2	94	86.5	82.9	97.1	95.8	91.2	93.5	111	102	95.8	106	120	98.1	115	120	111	118	107	113	120	88.8	112	98	87.4	109	117	114	107	124	114	113
Cn1cnc2c1c(=O)[nH]c(=O)n2C	97.5	110	103	106	116	115	112	107	94.1	91	5.76	92.7	85.2	106	101	93.2	107	93	94.3	79.6	61.8	5.77	95.3	99	90.9	108	111	94.3	108	105	96.8	79.9	6.67
Cc1cnc(-c2cc(N3CCN(C(=O)CC[S+](C)(=O)[O-])CC3)ncc2Cl)c(C)c1	103	102	118	119	128	122	124	130	127	125	141	115	151	119	116	118	136	135	140	140	142	136	112	115	107	133	125	132	124	141	155	143	139
O=C(O)c1ccc2c(c1)nc(Nc1cccc(Cl)c1)c1ccncc12	103	114	106	105	110	101	117	102	77.6	35.9	48.8	107	108	98.5	103	111	127	104	98.1	70.7	32.1	46	103	103	105	99.5	107	125	114	102	62.2	30.4	38.5
O=C(O[C@H]1C[C@H]2CC[C@@H](C1)[N+]21CCCC1)C(O)(c1ccccc1)c1ccccc1.[Cl-]	97.4	96.2	104	103	115	113	115	115	118	113	98.2	90	98.1	88.4	98.9	103	95.8	97.9	127	109	106	99.9	81	101	98.5	108	132	122	115	117	119	117	122
C[C@]12CCC(=O)C=C1CC[C@@H]1[C@@H]2CC[C@@]2(C)[C@H]1CC[C@]2(C)O	93.6	72.8	86.5	29.9	86.7	91.1	68.3	84.9	90.9	65.6	78.7	101	105	97.3	29.8	98.1	95.5	96.1	74.3	102	95.8	85.4	95.5	82.2	86.9	41.9	95.2	98.6	107	99.7	100	98.9	97.4
COc1ncc(-c2ccc3nccc(-c4ccnnc4)c3c2)cc1N[S+](=O)([O-])c1ccc(F)cc1F	81	71.8	60.5	66.9	59.4	50.4	43.9	30	21.1	6.8	6.02	79	65	74.8	61.7	51.9	46.7	37	19.2	14.2	6.8	5.84	98.1	79.9	67.8	68.7	64.6	54.4	51.9	26.5	16.7	6.57	5.89
COC1=CC=C(C=C1)C/2=C/OC3=C(C(=CC(=C3)O)O)C2=O	108	124	110	95.9	115	114	125	124	125	131	75.2	90.7	92.9	101	74.8	103	100	108	106	124	114	98.2	98.7	115	122	77.4	133	130	132	138	143	145	132
CC(C)NC[C@@H](C(=O)N1CCN(c2ncnc3c2[C@H](C)C[C@H]3O)CC1)c1ccc(Cl)cc1	113	103	115	89.3	87.6	63.6	36.9	23.1	12.1	9.57	1.69	103	112	127	101	74.3	61.3	36.9	32.5	13.8	5.24	1.73	117	90.3	93	79.4	93.2	48.5	34.9	20.5	9.56	4.26	2.07
COc1cc2ncnc(Nc3cc(Br)c(O)c(Br)c3)c2cc1OC	80	90.5	97.8	98.4	109	101	113	109	104	106	78	112	107	118	121	125	101	131	124	108	102	85.6	82.8	99.2	110	97.8	113	99.7	103	108	98.5	89.1	61.6
COc1ccc(C2CNC(=O)C2)cc1OC1CCCC1 (stereo not given)	80.8	93.4	91.4	89.7	106	97.7	107	102	108	97	101	82.9	88.6	89.9	81.7	100	95.3	102	110	97.3	107	90.2	85.9	89.7	101	89.8	95	99.3	94.6	99.9	101	102	103
C\C1=C(\C=C(\C#N)C(=O)N1)C2=CC=NC=C2	82.7	86.9	91.6	104	101	113	99.3	111	96.7	126	113	109	92.5	113	109	121	112	108	112	84.9	122	97.8	115	101	111	130	118	117	96.4	109	105	109	114
CN1CCN(c2ccc([N+](=O)[O-])c3no[n+]([O-])c23)CC1	93.2	89	87.3	94.7	81.1	95.2	97	85.9	88.7	82.2	52.4	84.6	103	91.4	101	105	106	87.4	101	110	98.4	69.1	85.9	97.3	93.4	89.3	85.2	99.4	99.1	93.3	92.4	76.1	46.1
Cc1ccc([S+](=O)([O-])N[C@@H](Cc2ccccc2)C(=O)CCl)cc1	91	58.6	93.2	93.3	93	105	96.4	109	103	85.5	25.3	87.4	53.1	94	97	95.8	114	95.6	108	104	87	22.1	80.5	49.8	100	104	88.6	95.4	93.6	107	100	94.3	23.4
